pIC50: −log10 of the molar value.
Tests used:
SW480 cell line [1] = experiment: Cell metabolism of phenolic compounds (UHPLC-HR-MS analysis of cell media); type: in vitro ADME, Human
Experimental: To analyze the metabolism of phenolic compounds by Caco-2 and SW480 cells, the cell culture media were withdrawn after 0, 24, 48 and 72 h of incubation. Phenolic compounds were extracted from the culture media by following the procedure reported in Sala et al.. Briefly, 100 μL of cold methanol was mixed with 100 μL of cell media and vortexed for 1 min. The mixture was then centrifuged at 10,000× g (4 °C, 5 min) and the supernatant was injected, after appropriate dilution, in an ultra-high-performance liquid chromatography high-resolution mass spectrometry system (UHPLC-HR-MS).
The HR-MS system consisted of a UHPLC Ultimate 3000 separation module, equipped with a C18 column (Acquity UPLC HSS C18 reversed phase, 2.1 × 100 mm, 1.8 μm particle size, Waters, Milan, Italy) and coupled with a Q Exactive Hybrid Quadrupole-Orbitrap Mass Spectrometer (Thermo Scientific, San Jose, CA, USA). Mobile phases consisted of a mixture of water containing formic acid (0.1%) (mobile phase A) and acetonitrile containing formic acid (0.1%) (mobile phase B). The gradient began at 1% B, reaching 40% B over 20 min. To wash the column, the mobile phase B concentration was raised to 99% over 6 min and kept at 99% for 3 min before returning to the initial conditions. The MS and MS/MS conditions are fully described in Martini et al..
Quantification was carried out by building external calibration curves with the available standard compounds.

SW480 cell line [2] = experiment: Anti-proliferative assay (MTS cell proliferation assay); type: cell-based, Human; details: maximum tested concentration 200 μmol/L
Experimental: Human colon cancer Caco-2 and SW480 cell lines were cultured and grown as previously reported. […] Incubation was carried out for 24, 48 and 72 h. Data were compared with a control solution containing 0.5% DMSO in cell medium and representing 100% proliferation. In addition, six different mixes were prepared to simulate the simultaneous presence of parent phenolic compounds and metabolites by mimicking the possible human inter-individual variability in colon metabolism of phenolic compounds. Two sets of mixes were prepared to consider the colon metabolism of quercetins and chlorogenic acids. […] For each set of mixtures (QUE and CGA mixtures), three different mixes were formulated. One set of mixes mimicked the low-producers metabotype and contained 90% parent compounds and 10% metabolites (mixes QUE-LP and CGA-LP). Another set of mixes was prepared to simulate the high-producers metabotype and contained 10% parent compounds and 90% metabolites (mixes QUE-HP and CGA-HP). Finally, a third set of mixes was prepared with equimolar amounts of all the compounds (mixes QUE-EQ and CGA-EQ). […] Cell proliferation was assessed by the MTS assay as previously described. […] The IC50 values were calculated through non-linear regression analysis by plotting the base-10 logarithm of the phenolic compound concentration vs. the percentage of inhibition.

[3] = SW480, 24 h, substrate 3,5-di-O-Caffeoylquinic acid 50 μmol/L
[4] = SW480, 48 h, substrate 3,5-di-O-Caffeoylquinic acid 50 μmol/L
[5] = SW480, 72 h, substrate 3,5-di-O-Caffeoylquinic acid 50 μmol/L
[6] = SW480, 24 h, substrate 3-O-Caffeoylquinic acid trans 50 μmol/L
[7] = SW480, 24 h, substrate 5-O-Caffeoylquinic acid trans 50 μmol/L
[8] = SW480, 48 h, substrate 5-O-Caffeoylquinic acid trans 50 μmol/L
[9] = SW480, 72 h, substrate 3-O-Caffeoylquinic acid trans 50 μmol/L
[10] = SW480, 72 h, substrate 5-O-Caffeoylquinic acid trans 50 μmol/L
[11] = SW480, 48 h, substrate 3-O-Caffeoylquinic acid trans 50 μmol/L
[12] = SW480, 24 h, substrate Quercetin 50 μmol/L
[13] = SW480, 48 h, substrate Quercetin 50 μmol/L
[14] = SW480, 48 h, substrate Quercetin-3-O-glucoside-4′-O-glucoside 50 μmol/L
[15] = SW480, 48 h, substrate Quercetin-4′-O-glucoside 50 μmol/L
[16] = SW480, 72 h, substrate Quercetin 50 μmol/L
[17] = SW480, 72 h, substrate Quercetin-3-O-glucoside-4′-O-glucoside 50 μmol/L
[18] = SW480, 72 h, substrate Quercetin-4′-O-glucoside 50 μmol/L

| Concentration of newly formed metabolite (SW480 cell line [1]; [3]) [µM] | Concentration of newly formed metabolite (SW480 cell line [1]; [4]) [µM] | Concentration of newly formed metabolite (SW480 cell line [1]; [5]) [µM] | Concentration of newly formed metabolite (SW480 cell line [1]; [6]) [µM] | Concentration of newly formed metabolite (SW480 cell line [1]; [7]) [µM] | Concentration of newly formed metabolite (SW480 cell line [1]; [8]) [µM] | Concentration of newly formed metabolite (SW480 cell line [1]; [9]) [µM] | Concentration of newly formed metabolite (SW480 cell line [1]; [10]) [µM] | Concentration of newly formed metabolite (SW480 cell line [1]; [11]) [µM] | SMILES | also measured |
| --- | --- | --- | --- | --- | --- | --- | --- | --- | --- | --- |
| 8.97 ± 0.04 | 8.87 ± 0.05 | 10.98 ± 0.02 | – | – | – | – | – | – | O=C(/C=C/c1ccc(O)c(O)c1)OC1CC(OC(=O)/C=C/c2ccc(O)c(O)c2)(C(=O)O)CC(O)C1O (centres unmarked) [1,3-di-O-Caffeoylquinic acid] | – |
| 0.91 ± 0.03 | 0.66 ± 0.03 | 0.55 ± 0.01 | – | – | – | – | – | – | O=C(/C=C/c1ccc(O)c(O)c1)OC1C(O)CC(OC(=O)/C=C/c2ccc(O)c(O)c2)(C(=O)O)CC1O (centres unmarked) [1,4-di-O-Caffeoylquinic acid] | – |
| 10.12 ± 0.10 | 8.04 ± 0.14 | 9.05 ± 0.15 | – | – | – | – | – | – | O=C(/C=C/c1ccc(O)c(O)c1)OC1CC(O)(C(=O)O)CC(O)C1OC(=O)/C=C/c1ccc(O)c(O)c1 (centres unmarked) [3,4-di-O-Caffeoylquinic acid] | – |
| – | – | – | 4.72 ± 0.04 | 0.41 ± 0.05 | 0.36 ± 0.04 | 3.27 ± 0.17 | 0.72 ± 0.03 | – | O=C(/C=C/c1ccc(O)c(O)c1)O[C@@H]1C[C@](O)(C(=O)O)C[C@@H](O)[C@H]1O [3-O-Caffeoylquinic acid cis, 3-O-Caffeoylquinic acid] | – |
| – | – | – | 0.08 ± 0.00 | 0.06 ± 0.00 | 0.07 ± 0.00 | 0.17 ± 0.00 | 0.05 ± 0.00 | 0.12 ± 0.00 | COc1cc(/C=C/C(=O)OC2CC(O)(C(=O)O)CC(O)C2O)ccc1O (centres unmarked) [3-O-Feruloylquinic acid] | – |
| 3.30 ± 0.05 | 2.20 ± 0.02 | 1.71 ± 0.03 | – | – | – | – | – | – | O=C(/C=C/c1ccc(O)c(O)c1)O[C@@H]1[C@H](O)C[C@@](O)(C(=O)O)C[C@H]1OC(=O)/C=C/c1ccc(O)c(O)c1 [4,5-di-O-Caffeoylquinic acid] | – |
| 0.07 ± 0.01 | 0.12 ± 0.01 | 0.25 ± 0.01 | 6.89 ± 0.06 | 12.69 ± 0.12 | 14.80 ± 0.09 | 12.02 ± 0.24 | 11.93 ± 0.03 | 8.07 ± 0.24 | O=C(/C=C/c1ccc(O)c(O)c1)OC1[C@H](O)CC(O)(C(=O)O)C[C@H]1O (stereo partly drawn) [4-O-Caffeoylquinic acid trans, 4-O-Caffeoylquinic acid] | – |
| – | – | – | 0.02 ± 0.00 | 0.04 ± 0.00 | 0.05 ± 0.00 | 0.07 ± 0.00 | 0.04 ± 0.00 | 0.04 ± 0.00 | COc1cc(/C=C/C(=O)OC2C(O)CC(O)(C(=O)O)CC2O)ccc1O (centres unmarked) [4-O-Feruloylquinic acid] | – |
| – | – | – | – | – | – | – | – | – | COc1ccc(-c2oc3cc(O)cc(O)c3c(=O)c2O)cc1O [4′-O-methylquercetin] | Concentration of newly formed metabolite (SW480 cell line [1]; [12]): 0.97 ± 0.04 µM; Concentration of newly formed metabolite (SW480 cell line [1]; [13]): 1.65 ± 0.04 µM; Concentration of newly formed metabolite (SW480 cell line [1]; [14]): 0.01 ± 0.00 µM; Concentration of newly formed metabolite (SW480 cell line [1]; [15]): 0.49 ± 0.01 µM; Concentration of newly formed metabolite (SW480 cell line [1]; [16]): 1.83 ± 0.25 µM; Concentration of newly formed metabolite (SW480 cell line [1]; [17]): 0.01 ± 0.00 µM; Concentration of newly formed metabolite (SW480 cell line [1]; [18]): 0.71 ± 0.04 µM |
| – | – | – | – | – | 0.97 ± 0.05 | – | 1.42 ± 0.01 | – | O=C(/C=C/c1ccc(O)c(O)c1)O[C@@H]1C[C@](O)(C(=O)O)C[C@@H](O)[C@H]1O [5-O-Caffeoylquinic acid cis, 5-O-Caffeoylquinic acid] | – |
| – | – | – | 0.03 ± 0.00 | 0.01 ± 0.00 | 0.03 ± 0.00 | 0.05 ± 0.00 | 0.03 ± 0.00 | 0.03 ± 0.00 | COc1cc(/C=C/C(=O)O[C@@H]2C[C@@](O)(C(=O)O)C[C@@H](O)[C@@H]2O)ccc1O [5-O-Feruloylquinic acid] | – |
| – | – | 1.07 ± 0.01 | 0.44 ± 0.01 | – | 0.08 ± 0.00 | 0.57 ± 0.01 | 0.09 ± 0.01 | 0.43 ± 0.01 | O=C(O)/C=C/c1ccc(O)c(O)c1 [Caffeic acid] | – |
| – | – | – | – | – | – | – | – | – | COc1cc(-c2oc3cc(O)cc(O)c3c(=O)c2O)ccc1O [Isorhamnetin] | Concentration of newly formed metabolite (SW480 cell line [1]; [12]): 1.61 ± 0.01 µM; Concentration of newly formed metabolite (SW480 cell line [1]; [13]): 3.46 ± 0.08 µM; Concentration of newly formed metabolite (SW480 cell line [1]; [14]): 0.01 ± 0.00 µM; Concentration of newly formed metabolite (SW480 cell line [1]; [15]): 0.79 ± 0.03 µM; Concentration of newly formed metabolite (SW480 cell line [1]; [16]): 3.76 ± 0.11 µM; Concentration of newly formed metabolite (SW480 cell line [1]; [17]): 0.01 ± 0.00 µM; Concentration of newly formed metabolite (SW480 cell line [1]; [18]): 1.03 ± 0.04 µM |
| – | – | – | – | – | – | – | – | – | O=c1c(O[C@@H]2O[C@H](CO)[C@@H](O)[C@H](O)[C@H]2O)c(-c2ccc(O[C@@H]3O[C@H](CO)[C@@H](O)[C@H](O)[C@H]3O)c(O)c2)oc2cc(O)cc(O)c12 [Quercetin-3-O-glucoside-4′-O-glucoside, quercetin-3-O-glucoside-4′-O-glucoside] | pIC50 (SW480 cell line [2]; SW480, 48 h of incubation): < 3.70; pIC50 (SW480 cell line [2]; SW480, 72 h of incubation): ~3.70 |
| – | – | – | – | – | – | – | – | – | O=c1c(O[C@@H]2O[C@H](CO)[C@@H](O)[C@H](O)[C@H]2O)c(-c2ccc(O)c(O)c2)oc2cc(O)cc(O)c12 [Quercetin-3-O-glucoside] | Concentration of newly formed metabolite (SW480 cell line [1]; SW480, 24 h, substrate Quercetin-3-O-glucoside-4′-O-glucoside 50 μmol/L): 3.35 ± 0.01 µM; Concentration of newly formed metabolite (SW480 cell line [1]; [14]): 8.94 ± 0.03 µM; Concentration of newly formed metabolite (SW480 cell line [1]; [17]): 9.34 ± 0.05 µM |

| SMILES | Concentration of newly formed metabolite (SW480 cell line [1]; [3]) [µM] | Concentration of newly formed metabolite (SW480 cell line [1]; [4]) [µM] | Concentration of newly formed metabolite (SW480 cell line [1]; [5]) [µM] | Concentration of newly formed metabolite (SW480 cell line [1]; [6]) [µM] | Concentration of newly formed metabolite (SW480 cell line [1]; [7]) [µM] | Concentration of newly formed metabolite (SW480 cell line [1]; [8]) [µM] | Concentration of newly formed metabolite (SW480 cell line [1]; [9]) [µM] | Concentration of newly formed metabolite (SW480 cell line [1]; [10]) [µM] | Concentration of newly formed metabolite (SW480 cell line [1]; [11]) [µM] | also measured |
| --- | --- | --- | --- | --- | --- | --- | --- | --- | --- | --- |
| COc1cc(/C=C/C(=O)O)ccc1O [Ferulic acid] | – | – | – | – | 0.06 ± 0.02 | 0.33 ± 0.01 | – | 0.37 ± 0.01 | – | – |

Source: publication PMC10418599, “Quercetins, Chlorogenic Acids and Their Colon Metabolites Inhibit Colon Cancer Cell Proliferation at Physiologically Relevant Concentrations” (International Journal of Molecular Sciences, 2023)
